25 compounds from patent US9150569B2, “Nitrogen-containing heterocyclic compound having inhibitory effect on production of kynurenine” (KYOWA HAKKO KIRIN CO., LTD., priority 2010, dated 2015) can be followed below.

The test system of this experiment is production of kynurenine in KATO-III cells. As to the kind of experiment: Inhibitory activity on the production of kynurenine (IFN-γ-treated KATO-III cells, kynurenine in the culture medium quantified by absorbance at 480 nm). It is filed as cell-based. The settings on record: test compound at 10 μmol/L, human gastric cancer cell line KATO-III, 96 hours, read-out: inhibition rate (production of kynurenine). On the procedure:
This assay was performed by a modification of the method described in J. Biol. Chem., vol. 263, pp. 2041-2048 (1988). For culture of the human gastric cancer cell line KATO-III, RPMI 1640 (GIBCO, 11875) supplemented with 10 volt FBS (GIBCO, 10091-148, lot. 665285) was used. One μL of a test substance in a DMSO solution was diluted with 199 μL of the culture medium and placed in wells of a 384-well plate (10 μL/well). Next, IFN-γ (Sigma, 1-3265) was added to the culture medium to a concentration of 31.25 ng/mL, and KATO-III cells were suspended at 50,000 cells/mL in the culture medium. Forty μL of the suspension was added to each well (2,000 cells/well) and incubated under a 5% CO2 atmosphere at 37° C. for 96 hours. The final concentration of DMSO was limited to 0.1 volt or less so that DMSO itself may not affect the kynurenine concentration measured by this assay. After the incubation, 10 μL of a 30 w/vt aqueous trichloroacetic acid solution was added to each well, and incubation was performed at 65° C. for 30 minutes. The plate was centrifuged at 2,500×g for 5 minutes and 15μL of the supernatant in each well was transferred into another 384-well plate. To the transferred supernatant, 15 μL of a 2 w/vt solution of p-dimethylaminobenzaldehyde in acetic acid was added, incubation was performed at 65° C. for 20 minutes and the absorbance was measured at 480 nm.
Sample: the absorbance value of the well to which a DMSO solution containing a test substance was added and in which the cells were treated with IFN-γ.
Blank: the absorbance value of the well to which DMSO not containing a test substance was added and in which the cells were treated with IFN-γ.
Control: the absorbance value of the well to which DMSO not containing a test substance was added and in which the cells were not treated with IFN-γ.
In this assay, expression of IDO in KATO-III cells is induced by IFN-γ treatment and kynurenine in the culture medium is quantified. The kynurenine concentration in a culture medium is known to increase in proportion to the enzymatic activity of intracellular IDO (for example, J. Biol. Chem., vol. 263, pp. 2041-2048 ([…])). […] The production of kynurenine is known to be inhibited by IDO inhibitors (for example, J. Clin. Invest., vol. 117, No. 5, pp. 1147-1154 […]), and thus it is speculated that Compounds (I) also have an inhibitory effect on IDO.
By inhibition is commonly meant the relative decrease from the control value, in per cent. Turning to `CCCS(=O)(=O)Nc1nc2ccccc2nc1OC(c1ccnc(N)c1)C(F)(F)F` (stereo not shown) [Compound 45, N-(3-(1-(2-aminopyridin-4-yl)-2,2,2-trifluoroethoxy)quinoxalin-2-yl)propane-1-sulfonamide], the inhibition at 10 µM is no less than 80%.
In the case of `CCCCS(=O)(=O)Nc1nc2ccccc2nc1OC(c1ccncc1)C(F)(F)F` (stereo not shown) [Compound 46, N-(3-(2,2,2-trifluoro-1-(pyridin-4-yl)ethoxy)quinoxalin-2-yl)butane-1-sulfonamide], the inhibition at 10 µM was no less than 80%.
As for `CCCCS(=O)(=O)Nc1nc2ccccc2nc1OC(c1cc[n+]([O-])cc1)C(F)(F)F` (stereo not shown) [Compound 47, 4-(1-(3-(butylsulfonamido)quinoxalin-2-yloxy)-2,2,2-trifluoroethyl)pyridine 1-oxide], the figure is no less than 80%.
Regarding `CCCS(=O)(=O)Nc1nc2ccccc2nc1OC(c1ccc2c(c1)OCCO2)C(F)(F)F` (stereo not shown) [Compound 48, N-(3-(1-(2,3-dihydrobenzo[b][1,4]dioxin-6-yl)-2,2,2-trifluoroethoxy)quinoxalin-2-yl)propane-1-sulfonamide], the inhibition at 10 µM was no less than 80%.
In the case of `CCCS(=O)(=O)Nc1nc2ccccc2nc1OC(c1ccnc(N(C)C(C)=O)c1)C(F)(F)F` (stereo not shown) [Compound 49, N-methyl-N-(4-(2,2,2-trifluoro-1-(3-(propylsulfonamido)quinoxalin-2-yloxy)ethyl)pyridin-2-yl)acetamide], the inhibition at 10 µM was no less than 80%.
As for `O=S(=O)(CC1CC1)Nc1nc2ccccc2nc1OC(c1ccncc1)C(F)(F)F` (stereo not shown) [Compound 50, 1-cyclopropyl-N-(3-(2,2,2-trifluoro-1-(pyridin-4-yl)ethoxy)quinoxalin-2-yl)methanesulfonamide], the figure is no less than 80%.
Turning to `CC(C)CS(=O)(=O)Nc1nc2ccccc2nc1OC(c1ccncc1)C(F)(F)F` (stereo not shown) [Compound 51, 2-methyl-N-(3-(2,2,2-trifluoro-1-(pyridin-4-yl)ethoxy)quinoxalin-2-yl)propane-1-sulfonamide], the inhibition at 10 µM was no less than 80%.
As for `CCCCS(=O)(=O)Nc1nc2ccccc2nc1OC(c1ccnc(C#N)c1)C(F)(F)F` (stereo not shown) [Compound 52, N-(3-(1-(2-cyanopyridin-4-yl)-2,2,2-trifluoroethoxy)quinoxalin-2-yl)butane-1-sulfonamide], the figure is no less than 80%; as for `CCCS(=O)(=O)Nc1nc2ccccc2nc1OC(c1ccn2cc(C)nc2c1)C(F)(F)F` (stereo not shown) [Compound 53, N-(3-(2,2,2-trifluoro-1-(2-methylimidazo[1,2-a]pyridin-7-yl)ethoxy)quinoxalin-2-yl)propane-1-sulfonamide], no less than 80%; as for `CCCS(=O)(=O)Nc1nc2ccccc2nc1OC(c1ccnc(-n2ccnc2)c1)C(F)(F)F` (stereo not shown) [Compound 54, N-(3-(1-(2-(1H-imidazol-1-yl)pyridin-4-yl)-2,2,2-trifluoroethoxy)quinoxalin-2-yl)propane-1-sulfonamide], no less than 80%.
As for `CCCS(=O)(=O)Nc1nc2ccccc2nc1OC(c1cnc(SC)nc1)C(F)(F)F` (stereo not shown) [Compound 55, N-(3-(2,2,2-trifluoro-1-(2-(methylthio)pyrimidin-5-yl)ethoxy)quinoxalin-2-yl)propane-1-sulfonamide], the inhibition at 10 µM was no less than 80%.
As for `CCCS(=O)(=O)Nc1nc2ccccc2nc1OC(c1ccc(-c2cnn(C)n2)nc1)C(F)(F)F` (stereo not shown) [Compound 64A, N-(3-(2,2,2-trifluoro-1-(6-(2-methyl-2H-1,2,3-triazol-4-yl)pyridin-3-yl)ethoxy)quinoxalin-2-yl)propane-1-sulfonamide], the inhibition at 10 µM is no less than 80%.
With `CCCS(=O)(=O)Nc1nc2ccccc2nc1OC(c1ccc(-c2cnco2)nc1)C(F)(F)F` (stereo not shown) [Compound 65, N-(3-(2,2,2-trifluoro-1-(6-(oxazol-5-yl)pyridin-3-yl)ethoxy)quinoxalin-2-yl)propane-1-sulfonamide], the inhibition at 10 µM was no less than 80%.
As to `CCCS(=O)(=O)Nc1nc2ccccc2nc1OC(c1ccc(-c2noc(C)n2)nc1)C(F)(F)F` (stereo not shown) [Compound 66, N-(3-(2,2,2-trifluoro-1-(6-(5-methyl-1,2,4-oxadiazol-3-yl)pyridin-3-yl)ethoxy)quinoxalin-2-yl)propane-1-sulfonamide], the inhibition at 10 µM is no less than 80%.
As for `COCCS(=O)(=O)Nc1nc2ccccc2nc1OC(c1ccc(-c2ccnn2C)nc1)C(F)(F)F` (stereo not shown) [Compound 67, 2-methoxy-N-(3-(2,2,2-trifluoro-1-(6-(1-methyl-1H-pyrazol-5-yl)pyridin-3-yl)ethoxy)quinoxalin-2-yl)ethanesulfonamide], the figure is no less than 80%.
For `COCCS(=O)(=O)Nc1nc2ccccc2nc1OC(c1ccc(-c2cnn(C)n2)nc1)C(F)(F)F` (stereo not shown) [Compound 68A, 2-methoxy-N-(3-(2,2,2-trifluoro-1-(6-(2-methyl-2H-1,2,3-triazol-4-yl)pyridin-3-yl)ethoxy)quinoxalin-2-yl)ethanesulfonamide], the inhibition at 10 µM was no less than 80%.
Regarding `COCCS(=O)(=O)Nc1nc2ccccc2nc1OC(c1ccc(-n2ccnc2C)nc1)C(F)(F)F` (stereo not shown) [Compound 69, 2-methoxy-N-(3-(2,2,2-trifluoro-1-(6-(2-methyl-1H-imidazol-1-yl)pyridin-3-yl)ethoxy)quinoxalin-2-yl)ethanesulfonamide], the inhibition at 10 µM is no less than 80%.
As for `CCCS(=O)(=O)Nc1nc2ccccc2nc1OC(c1cnc(C)n1C)C(F)(F)F` (stereo not shown) [Compound 70, N-(3-(1-(1,2-dimethyl-1H-imidazol-5-yl)-2,2,2-trifluoroethoxy)quinoxalin-2-yl)propane-1-sulfonamide], the figure is no less than 80%; as for `CCCS(=O)(=O)Nc1nc2ccccc2nc1OC(c1cnc(C(C)=O)s1)C(F)(F)F` (stereo not shown) [Compound 71, N-(3-(1-(2-acetylthiazol-5-yl)-2,2,2-trifluoroethoxy)quinoxalin-2-yl)propane-1-sulfonamide], no less than 80%; as for `COCCS(=O)(=O)Nc1nc2ccccc2nc1OC(c1ccnc(C(C)=O)c1)C(F)(F)F` (stereo not shown) [Compound 72, N-(3-(1-(2-acetylpyridin-4-yl)-2,2,2-trifluoroethoxy)quinoxalin-2-yl)-2-methoxyethanesulfonamide], no less than 80%.
As for `COCCS(=O)(=O)Nc1nc2ccccc2nc1OC(c1ccc(-c2cnco2)nc1)C(F)(F)F` (stereo not shown) [Compound 73, 2-methoxy-N-(3-(2,2,2-trifluoro-1-(6-(oxazol-5-yl)pyridin-3-yl)ethoxy)quinoxalin-2-yl)ethanesulfonamide], the inhibition at 10 µM was no less than 80%.
As for `COCCS(=O)(=O)Nc1nc2ccccc2nc1OC(c1cnc(C(C)=O)s1)C(F)(F)F` (stereo not shown) [Compound 74, N-(3-(1-(2-acetylthiazol-5-yl)-2,2,2-trifluoroethoxy)quinoxalin-2-yl)-2-methoxyethanesulfonamide], the figure is no less than 80%.
As for `CCCS(=O)(=O)Nc1nc2cc(I)ccc2nc1OC(c1cccnc1)C(F)(F)F` (stereo not shown) [Compound 77, N-(7-iodo-3-(2,2,2-trifluoro-1-(pyridin-3-yl)ethoxy)quinoxalin-2-yl)propane-1-sulfonamide], the figure is no less than 80%; as for `CCCS(=O)(=O)Nc1nc2cc(C#N)ccc2nc1OC(c1cccnc1)C(F)(F)F` (stereo not shown) [Compound 78, N-(7-cyano-3-(2,2,2-trifluoro-1-(pyridin-3-yl)ethoxy)quinoxalin-2-yl)propane-1-sulfonamide], no less than 80%.
Take `C#Cc1ccc2nc(OC(c3cccnc3)C(F)(F)F)c(NS(=O)(=O)CCC)nc2c1` (stereo not shown) [Compound 79, N-(7-ethynyl-3-(2,2,2-trifluoro-1-(pyridin-3-yl)ethoxy)quinoxalin-2-yl)propane-1-sulfonamide]: the inhibition at 10 µM was no less than 80%.
